Patent publication US10117942B2, “Photoactivatable lipid-based nanoparticles as vehicles for dual agent delivery” (The United States of America, as represented by the …, priority 2013, dated 2018)

Tests used:
[1] = 0.5 mg or 2.5 mg liposomal lipid
Experimental: As a control, mice were injected with doxorubicin in the absence of liposomes.

[2] = at physiological pH; cited from earlier work

| SMILES | organ uptake (fluorescence Ex=500, Em=600) [1] | log P [2] |
| --- | --- | --- |
| COc1cccc2c1C(=O)c1c(O)c3c(c(O)c1C2=O)C[C@@](O)(C(=O)CO)C[C@@H]3O[C@H]1C[C@H](N)[C@H](O)[C@H](C)O1 [doxorubicin] | no fluorescence was observed |  |
| CCCCCCOC(C)c1c(C)c2cc3nc(c4c5[nH]c(cc6nc(cc1[nH]2)C(C)=C6CC)c(C)c5C(=O)C4)[C@@H](CCC(=O)O)[C@@H]3C (some centres unmarked) [HPPH, 2-[1-hexyloxyethyl]-2-devinyl pyropheophorbide-a] |  | 5.6 |
